Laboratory results taken from PubChem BioAssay AID344 (DTP/NCI, 2004).
Several values for one entry are separate records, joined by “and”; a condition that tells them apart may be missing. Identical values can stand only once. Toxic doses and inconclusive results are not listed. How the source made its calls: active means survival T/C of 150% or more; inactive means T/C below 125% in these data.

Test system: mice, LPC-1 plasma cell tumor ip, median survival T/C
Test: NCI In Vivo Anticancer Drug Screen. Data for tumor model Lieberman Plasma Cell No. 1 (LPC-1) (intraperitoneal) in unknown mice
Conditions: endpoint: median survival time, higher = longer survival
Experimental: The antitumor activity of compounds was measured in mice bearing transplantable tumors. Survival or tumor size were measured and the results are expressed as the measurement made in the treated group (T) divided by the measurement made in the vehicle treated control group (C). The tumor model used in this assay is Lieberman Plasma Cell No. 1 (LPC-1) (intraperitoneal) in unknown mice

Measured: T/C

COc1cc2c(c3c1c(=O)c1ccccc1n3C)C=CC(C)(C)O2
inactive: dose: 9.38 mg/kg/injection, schedule: Q03HX024 (oral), vehicle: steriod suspending solution 118 % of control | dose: 18.0 mg/kg/injection, schedule: Q01DX021 (sc), vehicle: other 121 % of control | dose: 18.75 mg/kg/injection, schedule: Q03HX008 (ip), vehicle: steriod suspending solution 103 % of control | dose: 18.75 mg/kg/injection, schedule: Q03HX024 (oral), vehicle: steriod suspending solution 118 % of control | dose: 37.5 mg/kg/injection, schedule: Q01DX028 (oral), vehicle: other 105 % of control | dose: 37.5 mg/kg/injection, schedule: Q03HX008 (oral), vehicle: steriod suspending solution 118 % of control | dose: 37.5 mg/kg/injection, schedule: Q03HX024 (oral), vehicle: steriod suspending solution 109 % of control | dose: 70.0 mg/kg/injection, schedule: Q03HX024 (sc), vehicle: steriod suspending solution 112 % of control | dose: 75.0 mg/kg/injection, schedule: Q01DX001 (ip), vehicle: steriod suspending solution 112 % of control | dose: 75.0 mg/kg/injection, schedule: Q01DX001 (oral), vehicle: steriod suspending solution 96 % of control | dose: 75.0 mg/kg/injection, schedule: Q01DX028 (oral), vehicle: other 108 % of control | dose: 75.0 mg/kg/injection, schedule: Q03HX008 (oral), vehicle: steriod suspending solution 87 % of control | dose: 99.0 mg/kg/injection, schedule: Q01DX020 (oral), vehicle: saline 120 % of control | dose: 100.0 mg/kg/injection, schedule: Q01DX001 (sc), vehicle: steriod suspending solution 100 % of control | dose: 142.0 mg/kg/injection, schedule: Q01DX001 (sc), vehicle: steriod suspending solution 104 % of control | dose: 145.0 mg/kg/injection, schedule: Q03HX024 (sc), vehicle: other 103 % of control | dose: 150.0 mg/kg/injection, schedule: Q01DX001 (ip), vehicle: steriod suspending solution 100 % of control | dose: 150.0 mg/kg/injection, schedule: Q01DX001 (oral), vehicle: steriod suspending solution 106 % of control and 112 % of control | dose: 150.0 mg/kg/injection, schedule: Q01DX028 (oral), vehicle: other 100 % of control | dose: 214.0 mg/kg/injection, schedule: Q01DX001 (sc), vehicle: steriod suspending solution 102 % of control | dose: 214.0 mg/kg/injection, schedule: Q03HX024 (sc), vehicle: other 112 % of control and 121 % of control | dose: 300.0 mg/kg/injection, schedule: Q01DX001 (oral), vehicle: steriod suspending solution 106 % of control | dose: 320.0 mg/kg/injection, schedule: Q01DX001 (sc), vehicle: steriod suspending solution 104 % of control | dose: 320.0 mg/kg/injection, schedule: Q03HX024 (sc), vehicle: other 118 % of control | dose: 480.0 mg/kg/injection, schedule: Q01DX001 (sc), vehicle: steriod suspending solution 118 % of control | dose: 528.0 mg/kg/injection, schedule: Q## X008 (sc), vehicle: steriod suspending solution 116 % of control | dose: 600.0 mg/kg/injection, schedule: Q01DX001 (ip), vehicle: steriod suspending solution 112 % of control | dose: 600.0 mg/kg/injection, schedule: Q01DX001 (oral), vehicle: steriod suspending solution 120 % of control | dose: 600.0 mg/kg/injection, schedule: Q## X024 (oral), vehicle: steriod suspending solution 86 % of control | dose: 1136.0 mg/kg/injection, schedule: Q## X008 (sc), vehicle: steriod suspending solution 108 % of control | dose: 2560.0 mg/kg/injection, schedule: Q## X024 (sc), vehicle: steriod suspending solution 118 % of control
active: dose: 18.0 mg/kg/injection, schedule: Q03HX008 (sc), vehicle: other 166 % of control | dose: 23.0 mg/kg/injection, schedule: Q01DX028 (sc), vehicle: other 154 % of control | dose: 27.0 mg/kg/injection, schedule: Q03HX008 (sc), vehicle: other 280 % of control | dose: 27.0 mg/kg/injection, schedule: Q03HX024 (sc), vehicle: other 178 % of control | dose: 40.0 mg/kg/injection, schedule: Q01DX021 (sc), vehicle: other 164 % of control | dose: 40.0 mg/kg/injection, schedule: Q03HX008 (sc), vehicle: other 180 % of control | dose: 40.0 mg/kg/injection, schedule: Q03HX024 (sc), vehicle: other 204 % of control | dose: 60.0 mg/kg/injection, schedule: Q01DX021 (sc), vehicle: other 173 % of control | dose: 60.0 mg/kg/injection, schedule: Q04DX003 (sc), vehicle: other 152 % of control | dose: 75.0 mg/kg/injection, schedule: Q03HX024 (oral), vehicle: steriod suspending solution 150 % of control | dose: 90.0 mg/kg/injection, schedule: Q01DX005 (sc), vehicle: other 150 % of control | dose: 143.0 mg/kg/injection, schedule: Q03HX008 (sc), vehicle: steriod suspending solution 153 % of control | dose: 143.0 mg/kg/injection, schedule: Q03HX024 (sc), vehicle: steriod suspending solution 156 % of control | dose: 180.0 mg/kg/injection, schedule: Q01DX001 (sc), vehicle: other 154 % of control | dose: 180.0 mg/kg/injection, schedule: Q01DX005 (sc), vehicle: other 171 % of control | dose: 180.0 mg/kg/injection, schedule: Q04DX003 (sc), vehicle: other 173 % of control | dose: 204.0 mg/kg/injection, schedule: Q03HX008 (sc), vehicle: steriod suspending solution 159 % of control | dose: 300.0 mg/kg/injection, schedule: Q## X008 (oral), vehicle: other 161 % of control | dose: 360.0 mg/kg/injection, schedule: Q01DX001 (sc), vehicle: other 152 % of control | dose: 800.0 mg/kg/injection, schedule: Q## X024 (sc), vehicle: steriod suspending solution 166 % of control | dose: 1712.0 mg/kg/injection, schedule: Q## X024 (sc), vehicle: steriod suspending solution 160 % of control | dose: 2560.0 mg/kg/injection, schedule: Q## X008 (sc), vehicle: steriod suspending solution 172 % of control

NC(CSCc1ccc(N(CCCl)CCCl)cc1)C(=O)O (centres undefined)
inactive: dose: 3.75 mg/kg/injection, schedule: Q01DX028 (sc), vehicle: saline 100 % of control | dose: 7.5 mg/kg/injection, schedule: Q01DX028 (sc), vehicle: saline 111 % of control | dose: 15.0 mg/kg/injection, schedule: Q01DX028 (sc), vehicle: saline 102 % of control | dose: 30.0 mg/kg/injection, schedule: Q01DX028 (sc), vehicle: saline 122 % of control

O=c1[nH]c(=O)n(C2CC(O)C(CO)O2)cc1C(F)(F)F (centres undefined)
inactive: dose: 50.0 mg/kg/injection, schedule: Q01DX028 (sc), vehicle: water 102 % of control | dose: 100.0 mg/kg/injection, schedule: Q01DX028 (sc), vehicle: water 100 % of control | dose: 200.0 mg/kg/injection, schedule: Q01DX028 (sc), vehicle: water 100 % of control | dose: 400.0 mg/kg/injection, schedule: Q01DX028 (sc), vehicle: water 97 % of control

O=c1ccc2cc(O)c(O)cc2o1
inactive: dose: 31.0 mg/kg/injection, schedule: Q01DX028 (sc), vehicle: steriod suspending solution 119 % of control | dose: 62.0 mg/kg/injection, schedule: Q01DX028 (sc), vehicle: steriod suspending solution 115 % of control

CN(N=O)C(N)=O
active: dose: 14.0 mg/kg/injection, schedule: Q01DX028 (sc), vehicle: saline 150 % of control
inactive: dose: 8.4 mg/kg/injection, schedule: Q01DX028 (sc), vehicle: saline 114 % of control | dose: 39.0 mg/kg/injection, schedule: Q01DX028 (sc), vehicle: saline 116 % of control | dose: 65.0 mg/kg/injection, schedule: Q01DX028 (sc), vehicle: saline 100 % of control

Cn1c2ccccc2c(=O)c2c(O)cc3c(c21)C=C(Br)C(C)(C)O3
inactive: dose: 9.38 mg/kg/injection, schedule: Q01DX028 (sc), vehicle: carboxymethylcellulose (CMC) 97 % of control | dose: 18.75 mg/kg/injection, schedule: Q01DX028 (sc), vehicle: carboxymethylcellulose (CMC) 97 % of control | dose: 37.5 mg/kg/injection, schedule: Q01DX028 (sc), vehicle: carboxymethylcellulose (CMC) 107 % of control | dose: 75.0 mg/kg/injection, schedule: Q01DX028 (sc), vehicle: carboxymethylcellulose (CMC) 97 % of control | dose: 150.0 mg/kg/injection, schedule: Q01DX028 (sc), vehicle: carboxymethylcellulose (CMC) 95 % of control

O=C(O)CCc1c[nH]c2ccc(N(CCCl)CCCl)cc12
active: dose: 1.8 mg/kg/injection, schedule: Q01DX028 (sc), vehicle: carboxymethylcellulose (CMC) 182 % of control | dose: 3.0 mg/kg/injection, schedule: Q01DX028 (sc), vehicle: carboxymethylcellulose (CMC) 164 % of control | dose: 5.0 mg/kg/injection, schedule: Q01DX028 (sc), vehicle: carboxymethylcellulose (CMC) 151 % of control | dose: 6.0 mg/kg/injection, schedule: Q01DX028 (sc), vehicle: carboxymethylcellulose (CMC) 163 % of control
inactive: dose: 2.7 mg/kg/injection, schedule: Q01DX028 (sc), vehicle: carboxymethylcellulose (CMC) 113 % of control | dose: 9.0 mg/kg/injection, schedule: Q01DX028 (sc), vehicle: carboxymethylcellulose (CMC) 86 % of control

O=NN(CCF)C(=O)NC1CCCCC1
inactive: dose: 33.0 mg/kg/injection, schedule: Q01DX028 (sc), vehicle: carboxymethylcellulose (CMC) 97 % of control
